In PMC10882719 (Frontiers in Neuroscience, 2024):
Like-named read-outs stand apart in the source and are kept apart here.

Key:
Format in all cases: cell-based
[1] = target: T1, 168 GPCRs (Homo sapiens, UniProt O43193); conditions: MLNR
T1 construct: host or cells: PathHunter cell lines

[2] = target: T2, 168 GPCRs (Homo sapiens, UniProt Q9Y5N1)
T2 construct: host or cells: PathHunter cell lines

[3] = target: T3, 168 GPCRs (Homo sapiens, UniProt Q15077); conditions: P2RY6
T3 construct: host or cells: PathHunter cell lines

[4] = target: T4, 168 GPCRs (Homo sapiens, UniProt Q15722); conditions: LTB4R
T4 construct: host or cells: PathHunter cell lines

[5] = target: T5, 168 GPCRs (Homo sapiens, UniProt P35372); conditions: OPRM1
T5 construct: host or cells: PathHunter cell lines

[6] = target: T6, 168 GPCRs (Homo sapiens, UniProt P34998)
T6 construct: host or cells: PathHunter cell lines
T6 sequence (P34998 24-415): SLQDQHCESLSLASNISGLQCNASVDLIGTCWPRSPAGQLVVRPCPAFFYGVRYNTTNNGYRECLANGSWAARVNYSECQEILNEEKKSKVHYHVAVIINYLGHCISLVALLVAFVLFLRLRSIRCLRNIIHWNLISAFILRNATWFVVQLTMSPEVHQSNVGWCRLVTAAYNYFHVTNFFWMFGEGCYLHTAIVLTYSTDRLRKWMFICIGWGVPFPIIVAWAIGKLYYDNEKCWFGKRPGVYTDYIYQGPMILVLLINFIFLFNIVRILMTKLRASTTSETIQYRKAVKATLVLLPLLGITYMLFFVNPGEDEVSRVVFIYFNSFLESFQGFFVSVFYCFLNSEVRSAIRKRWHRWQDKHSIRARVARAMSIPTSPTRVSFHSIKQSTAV

[7] = target: T7, 168 GPCRs (Homo sapiens, UniProt P49190); conditions: PTHR2
T7 construct: host or cells: PathHunter cell lines

[8] = target: T8, 168 GPCRs (Homo sapiens, UniProt P35408); conditions: PTGER4
T8 construct: host or cells: PathHunter cell lines

[9] = target: T9, 168 GPCRs (Homo sapiens, UniProt P30939); conditions: HTR1F
T9 construct: host or cells: PathHunter cell lines
T9 sequence (P30939 1-366): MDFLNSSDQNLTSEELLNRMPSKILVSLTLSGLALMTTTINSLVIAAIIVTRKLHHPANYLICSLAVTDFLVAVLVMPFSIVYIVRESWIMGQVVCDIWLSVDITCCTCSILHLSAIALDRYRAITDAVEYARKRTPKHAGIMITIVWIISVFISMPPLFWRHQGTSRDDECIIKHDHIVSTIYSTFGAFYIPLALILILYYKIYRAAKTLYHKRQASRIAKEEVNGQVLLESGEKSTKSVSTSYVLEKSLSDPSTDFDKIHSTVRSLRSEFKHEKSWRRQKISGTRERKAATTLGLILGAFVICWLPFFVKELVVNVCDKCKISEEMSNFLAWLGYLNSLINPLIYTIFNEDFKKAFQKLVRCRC

[10] = target: T10, 168 GPCRs (Homo sapiens, UniProt P30559); conditions: OXTR
T10 construct: host or cells: PathHunter cell lines
T10 sequence (P30559 1-389): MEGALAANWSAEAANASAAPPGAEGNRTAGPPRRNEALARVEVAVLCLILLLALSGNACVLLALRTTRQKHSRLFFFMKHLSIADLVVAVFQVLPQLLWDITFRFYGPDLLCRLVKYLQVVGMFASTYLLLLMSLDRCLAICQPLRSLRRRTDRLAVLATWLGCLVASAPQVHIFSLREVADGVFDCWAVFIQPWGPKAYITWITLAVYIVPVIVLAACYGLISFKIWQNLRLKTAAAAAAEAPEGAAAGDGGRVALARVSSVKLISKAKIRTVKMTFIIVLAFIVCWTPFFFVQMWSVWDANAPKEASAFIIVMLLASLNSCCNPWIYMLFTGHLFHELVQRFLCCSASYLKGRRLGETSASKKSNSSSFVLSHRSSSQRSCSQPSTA

T3 sequence (Q15077 whole entry): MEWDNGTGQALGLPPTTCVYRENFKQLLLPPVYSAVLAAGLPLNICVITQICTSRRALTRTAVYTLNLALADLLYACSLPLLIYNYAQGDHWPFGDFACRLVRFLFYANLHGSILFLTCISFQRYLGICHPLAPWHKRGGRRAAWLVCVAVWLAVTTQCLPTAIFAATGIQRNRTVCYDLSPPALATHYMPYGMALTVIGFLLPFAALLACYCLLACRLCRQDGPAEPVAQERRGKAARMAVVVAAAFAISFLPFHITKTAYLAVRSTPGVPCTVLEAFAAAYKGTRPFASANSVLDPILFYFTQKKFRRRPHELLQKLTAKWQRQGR
T4 sequence (Q15722 whole entry): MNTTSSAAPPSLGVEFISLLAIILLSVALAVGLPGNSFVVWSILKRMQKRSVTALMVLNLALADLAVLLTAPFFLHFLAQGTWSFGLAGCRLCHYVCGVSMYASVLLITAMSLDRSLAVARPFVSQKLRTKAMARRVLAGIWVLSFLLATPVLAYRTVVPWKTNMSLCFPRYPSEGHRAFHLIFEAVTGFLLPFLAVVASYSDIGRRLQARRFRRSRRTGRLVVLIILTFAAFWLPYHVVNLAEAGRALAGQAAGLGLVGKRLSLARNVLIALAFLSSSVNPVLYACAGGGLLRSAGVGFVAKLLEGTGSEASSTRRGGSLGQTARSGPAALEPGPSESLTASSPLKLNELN
T5 sequence (P35372 whole entry): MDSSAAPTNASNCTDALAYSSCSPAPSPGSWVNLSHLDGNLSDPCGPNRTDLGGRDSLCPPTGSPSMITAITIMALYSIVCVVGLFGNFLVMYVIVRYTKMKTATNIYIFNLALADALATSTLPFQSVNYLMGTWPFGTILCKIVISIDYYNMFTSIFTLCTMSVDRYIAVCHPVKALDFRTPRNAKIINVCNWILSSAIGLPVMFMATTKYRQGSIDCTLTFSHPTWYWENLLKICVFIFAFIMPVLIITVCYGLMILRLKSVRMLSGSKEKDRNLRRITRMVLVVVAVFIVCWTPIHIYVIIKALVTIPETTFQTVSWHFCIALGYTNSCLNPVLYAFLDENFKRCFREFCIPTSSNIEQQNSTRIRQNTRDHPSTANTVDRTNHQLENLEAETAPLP
T7 sequence (P49190 25-550): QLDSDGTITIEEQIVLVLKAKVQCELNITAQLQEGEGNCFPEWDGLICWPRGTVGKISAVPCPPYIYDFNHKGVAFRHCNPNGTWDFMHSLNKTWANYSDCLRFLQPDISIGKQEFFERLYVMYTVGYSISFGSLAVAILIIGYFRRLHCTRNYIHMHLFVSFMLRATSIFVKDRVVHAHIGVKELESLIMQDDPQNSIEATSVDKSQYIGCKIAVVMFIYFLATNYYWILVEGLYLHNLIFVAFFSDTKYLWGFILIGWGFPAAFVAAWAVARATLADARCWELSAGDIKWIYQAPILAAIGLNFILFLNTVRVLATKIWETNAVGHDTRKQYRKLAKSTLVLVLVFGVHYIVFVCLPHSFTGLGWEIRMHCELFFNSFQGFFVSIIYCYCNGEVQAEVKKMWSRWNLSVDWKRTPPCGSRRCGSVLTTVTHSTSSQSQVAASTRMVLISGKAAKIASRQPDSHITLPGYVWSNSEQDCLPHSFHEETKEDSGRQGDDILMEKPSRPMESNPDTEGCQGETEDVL
T1 sequence (O43193 whole entry): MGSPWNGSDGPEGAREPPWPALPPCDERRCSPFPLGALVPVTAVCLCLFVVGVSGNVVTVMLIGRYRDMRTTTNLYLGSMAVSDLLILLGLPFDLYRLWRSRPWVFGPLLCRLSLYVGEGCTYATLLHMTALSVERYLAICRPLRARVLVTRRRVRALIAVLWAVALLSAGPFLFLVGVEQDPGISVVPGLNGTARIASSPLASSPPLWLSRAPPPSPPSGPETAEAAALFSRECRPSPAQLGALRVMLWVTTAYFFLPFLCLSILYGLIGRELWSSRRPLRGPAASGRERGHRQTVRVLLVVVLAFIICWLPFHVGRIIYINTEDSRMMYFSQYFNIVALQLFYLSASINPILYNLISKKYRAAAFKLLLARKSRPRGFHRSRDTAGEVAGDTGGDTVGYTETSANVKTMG
T2 sequence (Q9Y5N1 whole entry): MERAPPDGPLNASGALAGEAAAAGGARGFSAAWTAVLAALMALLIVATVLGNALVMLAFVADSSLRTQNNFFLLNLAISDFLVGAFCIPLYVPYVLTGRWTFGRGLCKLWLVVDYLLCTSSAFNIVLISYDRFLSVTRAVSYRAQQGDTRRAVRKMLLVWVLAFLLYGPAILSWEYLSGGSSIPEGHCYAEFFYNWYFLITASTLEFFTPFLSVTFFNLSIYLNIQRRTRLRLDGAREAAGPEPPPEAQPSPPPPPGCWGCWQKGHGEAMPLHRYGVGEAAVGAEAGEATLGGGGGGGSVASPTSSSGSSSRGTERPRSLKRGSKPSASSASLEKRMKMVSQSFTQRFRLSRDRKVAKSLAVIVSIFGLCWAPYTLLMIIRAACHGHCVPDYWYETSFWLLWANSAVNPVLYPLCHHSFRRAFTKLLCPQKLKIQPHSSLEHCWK
T8 sequence (P35408 whole entry): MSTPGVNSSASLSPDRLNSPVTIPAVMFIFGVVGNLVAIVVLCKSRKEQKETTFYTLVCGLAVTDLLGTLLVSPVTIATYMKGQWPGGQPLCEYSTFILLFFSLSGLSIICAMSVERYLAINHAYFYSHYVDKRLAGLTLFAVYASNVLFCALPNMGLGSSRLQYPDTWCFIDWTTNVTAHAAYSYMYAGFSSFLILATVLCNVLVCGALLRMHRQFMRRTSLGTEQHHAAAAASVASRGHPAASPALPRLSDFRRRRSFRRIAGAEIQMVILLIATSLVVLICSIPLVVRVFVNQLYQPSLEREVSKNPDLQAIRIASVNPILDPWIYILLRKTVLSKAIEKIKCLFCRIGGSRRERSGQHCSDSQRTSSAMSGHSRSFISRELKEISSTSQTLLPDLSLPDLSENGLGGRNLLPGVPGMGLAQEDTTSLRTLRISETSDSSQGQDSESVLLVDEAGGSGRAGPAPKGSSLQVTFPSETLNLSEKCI

| Structure (SMILES) | % Agonist Activity ([1]; 1 uM) [%] | % Antagonist Activity ([1]; 1 uM) [%] | % Agonist Activity ([1]; 10 uM) [%] | % Antagonist Activity ([1]; 10 uM) [%] | % Agonist Activity ([2]; HRH3, 1 uM) [%] | % Antagonist Activity ([2]; HRH3, 1 uM) [%] | % Agonist Activity ([2]; HRH3, 10 uM) [%] | % Antagonist Activity ([2]; HRH3, 10 uM) [%] | % Agonist Activity ([3]; Conc 1 uM) [%] | % Antagonist Activity ([3]; Conc 1 uM) [%] | % Agonist Activity ([3]; Conc 10 uM) [%] | % Antagonist Activity ([3]; Conc 10 uM) [%] | % Agonist Activity ([4]; 1 uM) [%] | % Antagonist Activity ([4]; 1 uM) [%] | % Agonist Activity ([4]; 10 uM) [%] | % Antagonist Activity ([4]; 10 uM) [%] | % Agonist Activity ([5]; Conc 1 uM) [%] | % Antagonist Activity ([5]; Conc 1 uM) [%] | % Agonist Activity ([5]; Conc 10 uM) [%] | % Antagonist Activity ([5]; Conc 10 uM) [%] | other results |
| --- | --- | --- | --- | --- | --- | --- | --- | --- | --- | --- | --- | --- | --- | --- | --- | --- | --- | --- | --- | --- | --- |
| CNC(C)Cc1ccc2c(c1)OCO2 (centres unmarked) [MDMA, 3,4-Methylenedioxy methamphetamine, reference compound] | -0.3 | 6.2 | -0.1 | 16.3 | -3.1 | 6.2 | -2.6 | 22.6 | 4.9 | 2.5 | 4.6 | 1.2 | 0.5 | 8.9 | 0.5 | 11.3 | -0.4 | -22.1 | -0.2 | -18.9 | % Agonist Activity ([6]; CRHR1, 1 uM): 0.7%; % Antagonist Activity ([6]; CRHR1, 1 uM): -1.7%; % Agonist Activity ([6]; CRHR1, 10 uM): 0.2%; % Antagonist Activity ([6]; CRHR1, 10 uM): 0.2%; % Agonist Activity ([7]; Conc 1 uM): 0.2%; % Antagonist Activity ([7]; Conc 1 uM): 2.9%; % Agonist Activity ([7]; Conc 10 uM): 0.5%; % Antagonist Activity ([7]; Conc 10 uM): 7%; % Agonist Activity ([8]; Conc 1 uM): 11.1%; % Antagonist Activity ([8]; Conc 1 uM): 7.2%; % Agonist Activity ([8]; Conc 10 uM): 7.8%; % Antagonist Activity ([8]; Conc 10 uM): 11.7%; % Agonist Activity ([9]; 1 uM): 10.9%; % Antagonist Activity ([9]; 1 uM): 14.6%; % Agonist Activity ([9]; 10 uM): 8.5%; % Antagonist Activity ([9]; 10 uM): 10.8%; % Agonist Activity ([10]; Conc 1 uM): -0.2%; % Antagonist Activity ([10]; Conc 1 uM): 3.7%; % Agonist Activity ([10]; Conc 10 uM): 0.6%; % Antagonist Activity ([10]; Conc 10 uM): 8.2% |
| CNC(C)C(=O)c1ccc2c(c1)OCO2 (centres unmarked) [methylone] | -1.5 | 15.6 | -1 | 12.3 | -3.4 | 9.5 | -3.7 | 5.8 | 4.5 | 6.5 | 2.4 | 2.6 | -0.3 | 3.5 | -0.8 | -5.2 | 0.2 | -8 | 0.5 | -18 | % Agonist Activity ([6]; CRHR1, 1 uM): 1.4%; % Antagonist Activity ([6]; CRHR1, 1 uM): 1.3%; % Agonist Activity ([6]; CRHR1, 10 uM): 1.1%; % Antagonist Activity ([6]; CRHR1, 10 uM): 0.6%; % Agonist Activity ([7]; Conc 1 uM): -0.6%; % Antagonist Activity ([7]; Conc 1 uM): -1%; % Agonist Activity ([7]; Conc 10 uM): -0.5%; % Antagonist Activity ([7]; Conc 10 uM): -0.2%; % Agonist Activity ([8]; Conc 1 uM): -2.8%; % Antagonist Activity ([8]; Conc 1 uM): 10.1%; % Agonist Activity ([8]; Conc 10 uM): -1.4%; % Antagonist Activity ([8]; Conc 10 uM): 4.3%; % Agonist Activity ([9]; 1 uM): -4.4%; % Antagonist Activity ([9]; 1 uM): 14.4%; % Agonist Activity ([9]; 10 uM): -3%; % Antagonist Activity ([9]; 10 uM): 9.2%; % Agonist Activity ([10]; Conc 1 uM): -0.6%; % Antagonist Activity ([10]; Conc 1 uM): 12.7%; % Agonist Activity ([10]; Conc 10 uM): -0.5%; % Antagonist Activity ([10]; Conc 10 uM): 6.9% |
